Data from patent US20260297121A1, “MITHRAMYCIN (MTM) 2’ OXIMES” (University of Kentucky Research Foundation, priority 2023, published 2026).
Like-named read-outs stand apart in the source and are kept apart here.

Assays:
H460 = assay: Cytotoxicity, resazurin fluorescence, H460; format: cell-based; details: Homo sapiens, read-out: GI50 H460
PC3 [1] = assay: Cytotoxicity, resazurin fluorescence, PC3; format: cell-based; details: Homo sapiens, PC-3, 72 h
Experimental: (§1) Exemplary compounds of the presently-disclosed subject matter were assessed for cytotoxicity (Table 5) in Ewing sarcoma (TC32) and non-Ewing (PC3 prostate cancer). […] Cells (1000-5000/well) were seeded in 96-well plates and allowed to attach and grow for 24 hr prior to adding compounds in half-log increments from 0.3 nM-10 μM. Cell viability was assessed after 72 hr continuous incubation with compounds using resazurin fluorescence. GI50 values were estimated using GraphPad Prism.

PC3 [2] = assay: IC50 in PC3 cells; format: cell-based; details: Homo sapiens, PC-3, read-out: IC50 PC2, Table 2; head prints PC2, text PC3
SK.ES1 = assay: Cytotoxicity, resazurin fluorescence, SK.ES1; format: cell-based; details: Homo sapiens, SK-ES1; Table 6; 72 hr; EWS cells
DU145 = assay: Cytotoxicity, resazurin fluorescence, DU145; format: cell-based; details: Homo sapiens, read-out: GI50 DU145
PANC1 = assay: Cytotoxicity, resazurin fluorescence, PANC1; format: cell-based; details: Homo sapiens, read-out: GI50 PANC1
LNCap = assay: Cytotoxicity, resazurin fluorescence, LNCap; format: cell-based; details: Homo sapiens, LNCaP, read-out: GI50 LNCap
EWS cells = assay: Cytotoxicity, average over Ewing (EWS) cell panel; format: cell-based; details: Table 6; 72 hr; average of EWS cells
Experimental: as §1

TC71 = assay: Cytotoxicity, resazurin fluorescence, TC71; format: cell-based; details: Homo sapiens, TC-71; Table 6; 72 hr; EWS cells
5838 = assay: Cytotoxicity, resazurin fluorescence, 5838; format: cell-based; details: Table 6; 72 hr; express EWS-ERG
TC32 = assay: Cytotoxicity, resazurin fluorescence, TC32; format: cell-based; details: Homo sapiens, TC-32, 72 h
Experimental: as §1

A673 = assay: Cytotoxicity, resazurin fluorescence, A673; format: cell-based; details: Homo sapiens, A673; Table 6; 72 hr; EWS cells
ES7 = assay: Cytotoxicity, resazurin fluorescence, ES7; format: cell-based; details: Homo sapiens, ES7; Table 6; 72 hr; EWS cells
ES4 = assay: Cytotoxicity, resazurin fluorescence, ES4; format: cell-based; details: Table 6; 72 hr; EWS cells
Non EWS cells = assay: Cytotoxicity, average over non-Ewing cell panel; format: cell-based; details: read-out: GI50 Average, Non EWS cells
Experimental: as §1

ES3 = assay: Cytotoxicity, resazurin fluorescence, ES3; format: cell-based; details: Table 6; 72 hr; EWS cells
log P = format: physicochemical; details: Table 2
HepG2 = assay: Cytotoxicity, resazurin fluorescence, HepG2; format: cell-based; details: Homo sapiens, read-out: GI50 HepG2
[3] = Clearance (CL) / pharmacokinetics; format: in vivo, mice; details: mouse, plasma, iv; Table 2
Experimental: Exemplary compounds of the presently-disclosed subject matter were assessed for activity, including clearance, potency, and selectivity. Results from studies are compiled in Tables 2-4.
Desirable clearance was identified at lower values of mL hr^−1kg^−1 (e.g., about ≤10 mL hr^−1 kg^−1), desirable potency was identified at lower values of IC50 (e.g., about ≤10 nM in TC32 cells), and desired selectivity was identified at higher ratios of IC50 in PC3/IC50 in TC32 (e.g. about >10).
Pharmacokinetics of exemplary compounds of the presently-disclosed subject matter were studied in mice following bolus IV dosing. Groups of three mice were administered the compound(s) and blood samples were collected via saphenous bleed. Plasma was separated by centrifugation and extracted to quantitate analytes by LC/MS/MS. Sample analysis followed upon the system meeting system suitability criteria customary for fit for purpose analytical methods. FIG. 1A includes data comparing YL-C09 to mithramycin (MTM) dosed separately. FIG. 1B includes data for YL-B171, YL-C110 and MTM dosed in cassette format.

RDES = assay: Cytotoxicity, resazurin fluorescence, RDES; format: cell-based; details: RD-ES; Table 6; 72 hr; EWS cells
BL1395 = assay: Cytotoxicity, resazurin fluorescence, BL1395; format: cell-based; details: read-out: GI50 BL1395
A549 = assay: Cytotoxicity, resazurin fluorescence, A549; format: cell-based; details: Homo sapiens, read-out: GI50 A549
Hela = assay: Cytotoxicity, resazurin fluorescence, Hela; format: cell-based; details: Homo sapiens, HeLa, read-out: GI50 Hela
TC32 cells = assay: Potency IC50 in TC32 cells and selectivity; format: cell-based; details: Homo sapiens, TC-32, Table 2, read-out: IC50 TC32
ES8 = assay: Cytotoxicity, resazurin fluorescence, ES8; format: cell-based; details: Homo sapiens, ES8; Table 6; 72 hr; EWS cells
HS68 = assay: Cytotoxicity, 72 hr resazurin assay, HS68 fibroblast; format: cell-based
Text: (§2) A fibroblast cell line (HS68 (FIG. 2E)) was used as a non-tumor control. The area under the concentration-efficacy curve (AUC; possible range of 0-20000) was used to estimate an alternate metric to GI50 for cases of shallow efficacy (e.g., the limited effect in HS68 cells).

RH41 = assay: Cytotoxicity, 72 hr resazurin assay, RH41 alveolar rhabdomyosarcoma; format: cell-based
Text: as §2

RD = assay: Cytotoxicity, 72 hr resazurin assay, RD embryonal rhabdomyosarcoma; format: cell-based
Text: as §2

rhabdomyosarcoma cells = assay: Cytotoxicity, 72 hr resazurin assay, four rhabdomyosarcoma cell lines; format: cell-based; details: JR1, RD, RH30, RH41, read-out: GI50 range in the four cell lines tested
Text: as §2

JR1 = assay: Cytotoxicity, 72 hr resazurin assay, JR1 embryonal rhabdomyosarcoma; format: cell-based
Text: as §2

RH30 = assay: Cytotoxicity, 72 hr resazurin assay, RH30 alveolar rhabdomyosarcoma; format: cell-based
Text: as §2

[4] = read-out: GI50 TC32, Table 6, EWS cells
[5] = NCI-H460, Table 6, 72 hr, non EWS cells
[6] = Table 6, non EWS cells, read-out: GI50 PC3
[7] = DU-145, Table 6, 72 hr, non EWS cells
[8] = PANC-1, Table 6, 72 hr, non EWS cells
[9] = Table 6, 72 hr, average of non EWS cells
[10] = HepG2, Table 6, 72 hr, hepatic origin
[11] = Table 6, 72 hr, lymphocyte origin
[12] = A549, Table 6, 72 hr, non EWS cells
[13] = area under concentration-efficacy curve, possible range 0-20000

SMILES	GI50 (PC3 [1]; read-out: GI50 PC3, Table 5) [nM]	IC50 (PC3 [2]) [nM]	GI50 (SK.ES1) [nM]	GI50 (EWS cells) [nM]	GI50 (TC71) [nM]	GI50 5838 [nM]	GI50 (TC32; read-out: GI50 TC32, Table 5) [nM]	GI50 (TC32; [4]) [nM]	GI50 (A673) [nM]	GI50 (ES7) [nM]	GI50 (ES4) [nM]	GI50 (ES3) [nM]	logP (log P)	GI50 (RDES) [nM]	IC50 (TC32 cells) [nM]	GI50 (ES8) [nM]	GI50 (H460; [5]) [nM]	GI50 (PC3 [1]; [6]) [nM]	GI50 (PANC1; [8]) [nM]	GI50 (LNCap; Table 6, 72 hr, non EWS cells) [nM]	also measured
CO[C@H](C(=NOCCNC(=O)c1cc2cc(F)ccc2[nH]1)[C@@H](O)[C@@H](C)O)[C@@H]1Cc2cc3cc(O[C@H]4C[C@@H](O[C@H]5C[C@@H](O)[C@H](O)[C@@H](C)O5)[C@H](O)[C@@H](C)O4)c(C)c(O)c3c(O)c2C(=O)[C@H]1O[C@H]1C[C@@H](O[C@H]2C[C@@H](O[C@H]3C[C@](C)(O)[C@H](O)[C@@H](C)O3)[C@@H](O)[C@@H](C)O2)[C@H](O)[C@@H](C)O1 [YL-B168]	65	19.5	39.2	66.9	258	40.2	30	30.3	34.5	76.9	30.9	56.7	1.62	32.9	2.15	68.8	–	–	–	–	GI50 (H460; NCI-H460, 72 h): 116 nM; GI50 (PC3 [1]; read-out: GI50 PC3, Table 6, non EWS cells): 65.2 nM; GI50 (DU145; DU-145, 72 h): 90.5 nM; GI50 (PANC1; PANC-1, 72 h): 105 nM; GI50 (LNCap; 72 h): 275 nM; GI50 (Non EWS cells; 72 h): 191 nM; GI50 (HepG2; HepG2, 72 h): > 1000 nM; clearance [3]: 0.717 mL/min/kg; GI50 (BL1395; Lymphocyte, 72 h): 49.9 nM; GI50 (A549; A549, 72 h): 358 nM; GI50 (Hela; 72 h): 470 nM
COC(C(=NOCCNC(=O)c1cc2cc(Br)ccc2[nH]1)C(O)C(C)O)C1Cc2cc3cc(OC4CC(OC5CC(O)C(O)C(C)O5)C(O)C(C)O4)c(C)c(O)c3c(O)c2C(=O)C1OC1CC(OC2CC(OC3CC(C)(O)C(O)C(C)O3)C(O)C(C)O2)C(O)C(C)O1 (stereo not drawn) [YL-B169]	34	20.6	24.4	43.8	152	30.2	18	18.4	26	25.6	25.1	38.4	2.37	29.1	1.16	68.7	78.7	34	62.1	239	GI50 (DU145; [7]): 49.9 nM; GI50 (Non EWS cells; [9]): 171 nM; GI50 (HepG2; [10]): 306 nM; clearance [3]: 0.467 mL/min/kg; GI50 (BL1395; [11]): 31.3 nM; GI50 (A549; [12]): 558 nM; GI50 (Hela; Table 6, 72 hr, non EWS cells): 176 nM
COC(C(=NOCc1cc2ccccc2[nH]1)C(O)C(C)O)C1Cc2cc3cc(OC4CC(OC5CC(O)C(O)C(C)O5)C(O)C(C)O4)c(C)c(O)c3c(O)c2C(=O)C1OC1CC(OC2CC(OC3CC(C)(O)C(O)C(C)O3)C(O)C(C)O2)C(O)C(C)O1 (stereo not drawn) [YL-C09]	–	5.65	18	21.1	11.5	27.5	17	–	38.1	14.5	16.6	19.2	1.9	16.8	1.96	31.5	21.5	19.3	33.4	63.3	GI50 (HS68; Homo sapiens, Hs68, fibroblast, non-tumor control): 1240 nM; AUC HS68 (HS68; [13]): 15517; GI50 (RH41; Homo sapiens, Rh41, alveolar): 24.1 nM; AUC RH41 (RH41; [13]): 9239; GI50 (RD; Homo sapiens, RD, embryonal): 20.7 nM; AUC RD (RD; [13]): 8443; GI50 (rhabdomyosarcoma cells): 15 to 25 nM; AUC JR1 (JR1; [13]): 8554; GI50 (JR1; embryonal): 15 nM; GI50 (Non EWS cells; [9]): 34.5 nM; GI50 (HepG2; [10]): 80.1 nM; GI50 (RH30; Rh30, alveolar): 24.3 nM; AUC RH30 (RH30; [13]): 7400; GI50 (BL1395; [11]): 24.1 nM; GI50 (A549; [12]): 22.6 nM; GI50 (Hela; Table 6, 72 hr, non EWS cells): 27.1 nM
CO[C@H](C(=NOCCNC(=O)c1cc2cc(OC(F)(F)F)ccc2[nH]1)[C@@H](O)[C@@H](C)O)[C@@H]1Cc2cc3cc(O[C@H]4C[C@@H](O[C@H]5C[C@@H](O)[C@H](O)[C@@H](C)O5)[C@H](O)[C@@H](C)O4)c(C)c(O)c3c(O)c2C(=O)[C@H]1O[C@H]1C[C@@H](O[C@H]2C[C@@H](O[C@H]3C[C@](C)(O)[C@H](O)[C@@H](C)O3)[C@@H](O)[C@@H](C)O2)[C@H](O)[C@@H](C)O1 [YL-B171]	49	10.7	35.4	31.7	19.5	37.1	26	25.6	51	26.7	20.4	31.5	2.93	32.7	4.62	36.7	69.5	49.3	138	117	GI50 (DU145; [7]): 32.5 nM; GI50 (Non EWS cells; [9]): 97.6 nM; GI50 (HepG2; [10]): 202 nM; GI50 (BL1395; [11]): 51.5 nM; GI50 (A549; [12]): 114 nM; GI50 (Hela; Table 6, 72 hr, non EWS cells): 105 nM
